Measurements reported in patent US20180369268A1, “METHODS FOR IDENTIFYING INHIBITORS OF "STIMULATOR OF INTERFERON GENE"- DEPENDENT INTERFERON PRODUCTION” (ADURO BIOTECH, INC., priority 2015, published 2018).

Legend:
[1] = target: T1, hSTING REF allele (Homo sapiens, UniProt Q86WV6); experiment: Differential scanning fluorometry (DSF) Tm shift with purified STING AA140-379; format: binding; details: ligand 1 mM, 1 mg/ml STING AA140-379
T1 construct: DNA encoding amino acids 140-379 (amino acid numbering corresponding to Swiss Prot Q86WV6); 6xHIS-SUMO (with TEV site) (N, cleaved yes); made in house; host or cells: Rosetta2 (DE3) E. coli
T1 sequence (Q86WV6 140-379): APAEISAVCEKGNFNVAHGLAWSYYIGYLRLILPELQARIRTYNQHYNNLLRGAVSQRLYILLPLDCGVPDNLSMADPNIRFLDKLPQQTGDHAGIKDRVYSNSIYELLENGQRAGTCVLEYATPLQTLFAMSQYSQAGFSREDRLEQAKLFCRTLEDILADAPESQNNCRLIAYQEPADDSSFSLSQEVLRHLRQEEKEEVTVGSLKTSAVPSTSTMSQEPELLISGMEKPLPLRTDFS
Excerpt: (§1) DNA encoding amino acids 140-379 (amino acid numbering corresponding to Swiss Prot Q86WV6) was amplified from plasmids containing the full length sequence of human STING alleles via polymerase chain reaction with the following primers: forward […] (SEQ ID NO: 9) and reverse […] (SEQ ID NO: 10). STING variant alleles were assigned according to Yi, et al, (2013), PLoS One, 8(10), e77846 (DOI: 10.1371/journal.pone.0077846. PCR products were cloned into bacterial expression vector encoding a N-terminal hexa-histidine affinity tag (6×HIS) followed by a small ubiquitin-like modifier (SUMO) solubility sequence (Butt, et al, (2005) Protein expression and purification 43.1, 1-9) and tobacco etch virus protease cleavage site (TEV) using ligation independent cloning (Aslanidis, et al, (1990) Nucleic acids research, 18.20, 6069-6074).
(§2) Plasmids encoding 6×HIS-SUMO-TEV-STING amino acids 140-379 were transformed into Rosetta2 (DE3) E. coli cells (EMD Millipore) for protein expression. Cells were grown in lysogeny broth at 37° C. until a […] absorbance of 0.6 was reached. Cells were then transferred to 18° C. and protein expression was induced overnight by the addition of isopropyl β-D-1-thiogalactopyranoside to the media at a concentration of 0.25 mM. Cells were harvested by centrifugation at 6,000 times gravity for 10 minutes. Cell pellets were re-suspended on ice in a buffer containing 50 mM Tris hydrochloride (Tris-HCl) pH 7.5, 500 mM sodium chloride (NaCl), 20 mM imidazole, 10% glycerol, 1 mM tris(2-carboxyethyl)phosphine hydrochloride (TCEP) and protease inhibitor tablet (Pierce) (Buffer A). Cells were lysed using an S-450D sonifier (Emmerson industrial) on ice. Cell lysate was centrifuged at 15,000 times gravity for 30 minutes at 4° C. Soluble material was applied to nickel-nitrilotriacetic acid (Ni-NTA) coupled Sepharose CL-6B (Qiagen) for 1 hour with gentle rocking at 4° C. After transfer to a gravity flow poly-prep column (Bio-Rad), resin was washed extensively in buffer A. Protein was eluted from the column in a buffer containing 20 mM Tris-HCl pH 7.5, 150 mM NaCl, 300 mM imidazole, 10% glycerol and 0.5 mM TCEP. To remove the 6×HIS-SUMO tag eluted protein was mixed with TEV protease (Sigma) at a ratio of 1:250 (w:w) and dialyzed overnight against a buffer containing 20 mM Tris-HCl pH 7.5, 150 mM NaCl, 5 mM imidazole, 10% glycerol and 0.5 mM TCEP. TEV protease and 6×HIS-SUMO tags were depleted by the addition of Ni-NTA resin (Qiagen) to the sample, purified STING amino acids 140-379 was collected by removal of the resin using a poly-prep column STING AA140-379 was concentrated with a 10,000 Dalton molecular weight cutoff centrifuge concentrator (EMD Millipore) to a final concentration of approximately 10 mg/ml. Protein was aliquoted, flash frozen in liquid nitrogen and stored at −80° C. until use.
(§3) Differential scanning fluorometry (DSF) is a technique that measures the ability of ligands to bind to and stabilize purified proteins (Niesen, et al, (2007) Nature protocols 2.9, 2212-2221). The protein is heated in the presence of a dye that binds to and fluoresces in hydrophobic environments. The protein is thermally denatured by heating resulting in increased dye binding to the unfolded protein and fluorescence. The temperature midpoint (Tm) of a proteins denaturation is established by calculating the half maximal value of the denaturation curve. The temperature midpoint of the protein in the presence of a ligand is directly related to the affinity of the ligand for the protein and therefore its ability to stabilize the protein at higher temperatures.
(§4) DSF was performed in a 20 μL reaction comprising 20 mM Tris-HCl pH 7.5, 150 mM NaCl, 1:500 dilution of SYPRO Orange (Life Technologies), 1 mg/ml purified STING AA140-379 protein and ligand at a concentration of 1 mM. Wild type hSTING, HAQ allele hSTING and/or REF allele hSTING were used with scaffold molecules of the invention as listed in Table 2.

[2] = target: T2, hSTING WT (Homo sapiens, UniProt Q86WV6, H232R); experiment: as above; format: binding; details: ligand 1 mM, 1 mg/ml STING AA140-379
T2 construct: DNA encoding amino acids 140-379 (amino acid numbering corresponding to Swiss Prot Q86WV6); 6xHIS-SUMO (with TEV site) (N, cleaved yes); made in house; host or cells: Rosetta2 (DE3) E. coli
T2 sequence (Q86WV6 140-379 H232R): as the sequence (Q86WV6 140-379) above, with H93R counted along it
Excerpt: as §1, §2, §3, §4

SMILES | hSTING Tm Shift REF [1] | hSTING Tm Shift WT [2]
CC(C)(C)[Si](C)(C)O[C@H]1[C@H]2O[P@@](=O)(S)OC[C@H]3O[C@@H](n4cnc5c(N)ncnc54)[C@H](F)[C@@H]3O[P@](=O)(S)OC[C@H]1O[C@H]2n1cnc2c(N)ncnc21 [Compound 6a, dithio-[SP, RP]-cyclic-[3′OTBS-A(2′,5′)p-2′F-A(3′,5′)p]] | 4.8 °C | 9.0 °C
Nc1nc(N)c2ncn([C@@H]3O[C@@H]4CO[P@@](=O)(S)O[C@H]5[C@@H](O)[C@H](n6cnc7c(N)nc(N)nc76)O[C@@H]5CO[P@@](=O)(S)O[C@H]4[C@H]3O)c2n1 [Compound 23, (2R,3R,3aS,5R,7aR,9R,10R,10aS,12R,14aR)-2,9-bis(2,6-diamino-9H-purin-9-yl)-3,10-dihydroxy-5,12-dimercaptooctahydro-2H,7H-difuro[3,2-d:3′,2′-j][1,3,7,9]tetraoxa[2,8]diphosphacyclododecine 5,12-dioxide] | 8.3 °C | 12.2 °C
Nc1nc(N)c2ncn([C@@H]3O[C@@H]4CO[P@@](=O)(S)O[C@H]5[C@@H](O)[C@H](n6cnc7c(N)nc(N)nc76)O[C@@H]5CO[P@](=O)(S)O[C@H]4[C@H]3O)c2n1 [Compound 23a, (2R,3R,3aS,5R,7aR,9R,10R,10aS,12S,14aR)-2,9-bis(2,6-diamino-9H-purin-9-yl)-3,10-dihydroxy-5,12-dimercaptooctahydro-2H,7H-difuro[3,2-d:3′,2′-j][1,3,7,9]tetraoxa[2,8]diphosphacyclododecine 5,12-dioxide] | 3.1 °C | 10.0 °C
CC(C)C(=O)Nc1nc2c(ncn2[C@@H]2O[C@@H]3CO[P@@](=O)(S)O[C@H]4[C@@H](F)[C@H](n5cnc6c(=O)[nH]c(NC(=O)C(C)C)nc65)O[C@@H]4CO[P@@](=O)(S)O[C@H]3[C@H]2F)c(=O)[nH]1 [Compound 32, N,N′-(((2R,3R,3aR,5R,7aR,9R,10R,10aR,12R,14aR)-3,10-difluoro-5,12-dimercapto-5,12-dioxidooctahydro-2H, 7H-difuro[3,2-d:3′,2′-j][1,3,7,9]tetraoxa[2,8]diphosphacyclododecine-2,9-diyl)bis(6-oxo-6,9-dihydro-1H-purine-9,2-diyl))bis(2-methylpropanamide)] | 10.5 °C | 10.7 °C
Nc1ccn([C@@H]2O[C@@H]3CO[P@@](=O)(S)O[C@H]4[C@@H](F)[C@H](n5cnc6c(N)ncnc65)O[C@@H]4CO[P@@](=O)(S)O[C@H]3[C@H]2F)c(=O)n1 [Compound 37, 4-amino-1-((2R,3R,3aR,5R,7aR,9R,10R,10aR,12R,14aR)-9-(6-amino-9H-purin-9-yl) 3,10-difluoro-5,12-dimercapto 5,12-dioxidooctahydro-2H,7H-difuro[3,2-d:3′,2′-j][1,3,7,9]tetraoxa[2,8]diphosphacyclododecin-2-yl)pyrimidin-2(1H)-one] | 7.5 °C | 8.2 °C
Nc1ccn([C@@H]2O[C@@H]3CO[P@](=O)(S)O[C@H]4[C@@H](F)[C@H](n5cnc6c(N)ncnc65)O[C@@H]4CO[P@@](=O)(S)O[C@H]3[C@H]2F)c(=O)n1 [Compound 37a, 4-amino-1-((2R,3R,3aR,5R,7aR,9R,10R, 10aR,12S,14aR)-9-(6-amino-9H-purin-9-yl)-3,10-difluoro-5,12-dimercapto-5,12-dioxidooctahydro-2H,7H-difuro[3,2-d: 3′,2′-j][1,3,7,9]tetraoxa[2,8]diphosphacyclododecin-2-yl)pyrimidin-2(1H)-one] | 5.3 °C | 5.6 °C
Nc1ncnc2c1ncn2[C@H]1O[C@H]2CO[P@](=O)(S)O[C@@H]3[C@H](O)[C@@H](n4cnc5c(N)ncnc54)O[C@H]3CO[P@](=O)(S)O[C@@H]2[C@@H]1O [Compound 48, (2S,3S,3aR,5S,7aS,9S,10S,10aR,12S,14aS)-2,9-bis(6-amino-9H-purin-9-yl)-3,10-dihydroxy-5,12-dimercaptooctahydro-2H,7H-difuro[3,2-d:3′,2′-j][1,3,7,9]tetraoxa[2,8]diphosphacyclododecine 5,12-dioxide] | 2.3 °C | 2.0 °C
Nc1ncnc2c1ncn2[C@H]1O[C@H]2CO[P@@](=O)(S)O[C@@H]3[C@H](O)[C@@H](n4cnc5c(N)ncnc54)O[C@H]3CO[P@](=O)(S)O[C@@H]2[C@@H]1O [Compound 48a, Triethylammonium (2S,3S,3aR,5R,7aS,9S,10S,10aR,12S,14aS)-2,9-bis(6-amino-9H-purin-9-yl)-3,10-dihydroxyoctahydro-2H, 7H-difuro[3,2-d: 3′,2′-j][1,3,7,9]tetraoxa[2,8]diphosphacyclododecine-5,12-bis(thiolate) 5,12-dioxide] | 6.3 °C | 2.9 °C
Nc1ncnc2c1ncn2[C@H]1O[C@H]2CO[P@@](=O)(S)O[C@@H]3[C@H](O)[C@@H](n4cnc5c(N)ncnc54)O[C@H]3CO[P@@](=O)(S)O[C@@H]2[C@@H]1O [Compound 48b, triethylammonium (2S,3S,3R,5R,7aS,9S,10S,10aR,12R,14aS)-2,9-bis(6-amino-9H-purin-9-yl)-3,10-dihydroxyoctahydro-2H,7H-difuro[3,2-d: 3′,2′-j][1,3,7,9]tetraoxa[2,8]diphosphacyclododecine-5,12-bis(thiolate) 5,12-dioxide] | 6.4 °C | 3.0 °C
